Test results from PMC5522071, “Preclinical development of G1T38: A novel, potent and selective inhibitor of cyclin dependent kinases 4/6 for use as an oral antineoplastic in patients with CDK4/6 sensitive tumors” (Oncotarget, 2017).

Key:
[1] = tested on: pRB in MCF7 xenograft tumors; test: Inhibition of Rb phosphorylation in MCF-7 tumors; type: in vivo, mice; details: single oral dose 100 mg/kg
SLK = target: T1, SLK (Homo sapiens, UniProt Q9H2G2); test: KdELECT Kd determination (DiscoveRx); type: binding; details: duplicate 11-point dose-response curves
T1 construct: purchased DiscoveRx (KdELECT service)
Method: (§1) G1T38 was profiled at DiscoveRx (Fremont, CA) using their KINOMEscan and scanMAX screening technology.
(§2) Supplementary Table 1: G1T38 Kinase Interactions
(§3) primary screen. Inhibitor binding constants (Kd values) were calculated from duplicate 11-point dose-response curves for
(§4) (1 picture or pasted object on this page, not shown here)

FLT3 (D835V) = target: T2, FLT3 (D835V) (Homo sapiens, UniProt P36888, D835V); test: KdELECT Kd determination (DiscoveRx); type: binding; details: duplicate 11-point dose-response curves
T2 construct: purchased DiscoveRx (KdELECT service)
Method: as §1, §2, §3, §4

ULK2 = target: T3, ULK2 (Homo sapiens, UniProt Q8IYT8); test: KdELECT Kd determination (DiscoveRx); type: binding; details: duplicate 11-point dose-response curves
T3 construct: purchased DiscoveRx (KdELECT service)
Method: as §1, §2, §3, §4

NEK10 = target: T4, NEK10 (Homo sapiens, UniProt Q6ZWH5); test: KdELECT Kd determination (DiscoveRx); type: binding; details: duplicate 11-point dose-response curves
T4 construct: purchased DiscoveRx (KdELECT service)
Method: as §1, §2, §3, §4

CDK4/ CyclinD1 = target: T5, CDK4/ CyclinD1 (Homo sapiens, UniProt P11802); test: KdELECT Kd determination (DiscoveRx); type: binding; details: duplicate 11-point dose-response curves
T5 construct: purchased DiscoveRx (KdELECT service)
Method: as §1, §2, §3, §4

SNARK = target: T6, SNARK (Homo sapiens, UniProt Q9H093); test: KdELECT Kd determination (DiscoveRx); type: binding; details: duplicate 11-point dose-response curves
T6 construct: purchased DiscoveRx (KdELECT service)
Method: as §1, §2, §3, §4

PRKD3 = target: T7, PRKD3 (Homo sapiens, UniProt O94806); test: KdELECT Kd determination (DiscoveRx); type: binding; details: duplicate 11-point dose-response curves
T7 construct: purchased DiscoveRx (KdELECT service)
Method: as §1, §2, §3, §4

PRKD2 = target: T8, PRKD2 (Homo sapiens, UniProt Q9BZL6); test: KdELECT Kd determination (DiscoveRx); type: binding; details: duplicate 11-point dose-response curves
T8 construct: purchased DiscoveRx (KdELECT service)
Method: as §1, §2, §3, §4

CDK4/ CyclinD3 = target: T9, CDK4/ CyclinD3 (Homo sapiens, UniProt P11802); test: KdELECT Kd determination (DiscoveRx); type: binding; details: duplicate 11-point dose-response curves
T9 construct: purchased DiscoveRx (KdELECT service)
Method: as §1, §2, §3, §4

TTK = target: T10, TTK (Homo sapiens, UniProt P33981); test: KdELECT Kd determination (DiscoveRx); type: binding; details: duplicate 11-point dose-response curves
T10 construct: purchased DiscoveRx (KdELECT service)
Method: as §1, §2, §3, §4

CDK1/Cyclin B1 = target: T11, CDK1/Cyclin B1 (Homo sapiens, UniProt P06493); type: biochemical; details: 12-point dose response, singlicate, at Km for ATP
T11 construct: purchased Nanosyn, Inc. (contract assay)

[2] = tested on: castration resistant prostate cancer (CRPC) models; parameters: method as in Stice JP, Wardell SE, Norris, JD et al., in press; details: ref Stice JP, Wardell SE, Norris, JD et al., in press; cited from earlier work
MV4-11 = test: Cell proliferation, CellTiter-Glo; type: cell-based; details: Homo sapiens, 144 h; MV4-11, B cell leukemia, RB +; four or six days; read-out: G1T38 EC50, growth inhibition
Method: (§5) To assess the capacity of G1T38 to inhibit proliferation of tumor cell lines, a broad panel of CDK4/6 dependent and independent lines was evaluated using CellTiter Glo (Table 2).
(§6) SupT1, Daudi, MCF7, ZR-75-1, A2058, WM2664, and H69 cells were seeded at 1000 cells per well; MV-4-11 and BV173 cells were plated at 4000 cells per well; Tom-1 cells were plated at 8,000 cells per well; NALM-1 cells were plated at 20,000 cells per well in Costar 3903 96 well plates. After 24 hours, plates were dosed with G1T38 at a nine-point dose concentration from 10 μM to 1 nM. Cell viability was determined after four or six days using the CellTiter-Glo® assay (Promega; Madison, WI) following manufacturer's recommendations. Plates were processed on BioTek (Winooski, VT) Synergy2 multi-mode plate reader and data analyzed using GraphPad (San Diego, CA) Prism 5 statistical software.

WM2664 = test: Cell proliferation, CellTiter-Glo; type: cell-based; details: Homo sapiens, WM 266-4, 144 h; WM2664, Melanoma, RB +; four or six days; read-out: G1T38 EC50, growth inhibition
Method: as §5, §6

MCF7 = test: Cell proliferation, CellTiter-Glo; type: cell-based; details: Homo sapiens, 144 h; MCF7, ER+ breast cancer, RB +; four or six days; read-out: G1T38 EC50, growth inhibition
Method: as §5, §6

A2058 = test: Cell proliferation, CellTiter-Glo; type: cell-based; details: Homo sapiens, 144 h; A2058, Melanoma, RB -; four or six days; read-out: G1T38 EC50, growth inhibition
Method: as §5, §6

Daudi = test: Cell proliferation, CellTiter-Glo; type: cell-based; details: Homo sapiens, 144 h, Lymphoma, RB +, four or six days, read-out: G1T38 EC50, growth inhibition
Method: as §5, §6

ZR-75-1 = test: Cell proliferation, CellTiter-Glo; type: cell-based; details: Homo sapiens, 144 h; ZR-75-1, ER+ breast cancer, RB +; four or six days; read-out: G1T38 EC50, growth inhibition
Method: as §5, §6

NALM1 = test: Cell proliferation, CellTiter-Glo; type: cell-based; details: 144 h; NALM1, Leukemia, RB -; four or six days; read-out: G1T38 EC50, growth inhibition
Method: as §5, §6

SupT1 = test: Cell proliferation, CellTiter-Glo; type: cell-based; details: Homo sapiens, SUP-T1, 144 h; SupT1, Lymphoma, RB +; four or six days; read-out: G1T38 EC50, growth inhibition
Method: as §5, §6

Tom1 = test: Cell proliferation, CellTiter-Glo; type: cell-based; details: 144 h; Tom1, Ph1+ leukemia, RB +; four or six days; read-out: G1T38 EC50, growth inhibition
Method: as §5, §6

BV173 = test: Cell proliferation, CellTiter-Glo; type: cell-based; details: Homo sapiens, BV-173, 144 h; BV173, Ph1+ leukemia, RB +; four or six days; read-out: G1T38 EC50, growth inhibition
Method: as §5, §6

H69 = test: Cell proliferation, CellTiter-Glo; type: cell-based; details: Homo sapiens, NCI-H69, 144 h; H69, SCLC, RB -; four or six days; read-out: G1T38 EC50, growth inhibition
Method: as §5, §6

CDK9/Cyclin T = target: T12, CDK9/Cyclin T (Homo sapiens, UniProt P50750); type: biochemical; details: 12-point dose response, singlicate, at Km for ATP
T12 construct: purchased Nanosyn, Inc. (contract assay)

T5 sequence (P11802 whole entry): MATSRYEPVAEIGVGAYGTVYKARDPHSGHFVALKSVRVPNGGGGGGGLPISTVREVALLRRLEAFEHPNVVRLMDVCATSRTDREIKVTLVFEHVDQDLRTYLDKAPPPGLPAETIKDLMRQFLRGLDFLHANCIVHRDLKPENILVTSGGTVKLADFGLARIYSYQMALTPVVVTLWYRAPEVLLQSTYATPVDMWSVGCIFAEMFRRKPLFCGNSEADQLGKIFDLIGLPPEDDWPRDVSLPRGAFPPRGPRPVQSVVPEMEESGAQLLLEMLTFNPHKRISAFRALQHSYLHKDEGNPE
T5 sequence (P24385 whole entry partner): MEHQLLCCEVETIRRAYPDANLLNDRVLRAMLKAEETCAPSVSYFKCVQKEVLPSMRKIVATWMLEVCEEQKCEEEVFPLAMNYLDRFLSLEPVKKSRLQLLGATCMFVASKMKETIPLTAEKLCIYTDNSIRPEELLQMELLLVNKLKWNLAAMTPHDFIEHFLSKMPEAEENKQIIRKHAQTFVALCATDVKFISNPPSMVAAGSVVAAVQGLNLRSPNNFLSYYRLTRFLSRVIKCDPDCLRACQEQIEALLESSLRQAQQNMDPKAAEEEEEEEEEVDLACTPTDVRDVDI
T9 sequence (P11802 whole entry): as the sequence (P11802 whole entry) above
T9 sequence (P30281 whole entry partner): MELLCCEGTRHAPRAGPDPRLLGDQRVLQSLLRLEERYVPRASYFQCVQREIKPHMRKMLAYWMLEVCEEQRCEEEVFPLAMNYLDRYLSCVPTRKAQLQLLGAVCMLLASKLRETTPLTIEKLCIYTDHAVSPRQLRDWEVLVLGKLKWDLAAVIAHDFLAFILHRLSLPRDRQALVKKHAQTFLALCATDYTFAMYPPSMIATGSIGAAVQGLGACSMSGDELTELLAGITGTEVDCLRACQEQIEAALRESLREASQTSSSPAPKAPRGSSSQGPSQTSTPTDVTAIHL
T8 sequence (Q9BZL6 whole entry): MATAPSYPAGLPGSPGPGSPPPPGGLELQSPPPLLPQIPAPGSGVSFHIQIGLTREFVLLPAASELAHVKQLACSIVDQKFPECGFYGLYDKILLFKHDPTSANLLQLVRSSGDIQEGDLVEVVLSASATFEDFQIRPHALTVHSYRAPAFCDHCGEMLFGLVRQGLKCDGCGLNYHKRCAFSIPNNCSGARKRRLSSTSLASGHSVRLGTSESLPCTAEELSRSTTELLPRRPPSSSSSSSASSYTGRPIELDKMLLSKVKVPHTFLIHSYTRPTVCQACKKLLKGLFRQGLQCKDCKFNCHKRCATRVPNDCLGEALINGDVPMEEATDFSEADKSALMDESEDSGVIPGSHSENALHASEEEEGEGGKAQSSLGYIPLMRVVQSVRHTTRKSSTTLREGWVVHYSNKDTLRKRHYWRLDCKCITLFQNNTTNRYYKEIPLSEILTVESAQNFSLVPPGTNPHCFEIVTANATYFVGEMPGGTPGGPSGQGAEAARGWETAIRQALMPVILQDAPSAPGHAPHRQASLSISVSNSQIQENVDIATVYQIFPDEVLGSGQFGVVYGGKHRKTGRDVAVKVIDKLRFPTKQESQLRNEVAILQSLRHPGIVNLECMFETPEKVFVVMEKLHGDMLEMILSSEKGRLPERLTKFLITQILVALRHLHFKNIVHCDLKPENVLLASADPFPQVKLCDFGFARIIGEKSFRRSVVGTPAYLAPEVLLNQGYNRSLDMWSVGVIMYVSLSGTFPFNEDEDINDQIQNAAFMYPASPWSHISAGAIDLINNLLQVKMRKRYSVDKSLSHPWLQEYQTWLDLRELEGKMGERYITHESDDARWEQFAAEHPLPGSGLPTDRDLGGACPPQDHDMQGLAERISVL
T7 sequence (O94806 whole entry): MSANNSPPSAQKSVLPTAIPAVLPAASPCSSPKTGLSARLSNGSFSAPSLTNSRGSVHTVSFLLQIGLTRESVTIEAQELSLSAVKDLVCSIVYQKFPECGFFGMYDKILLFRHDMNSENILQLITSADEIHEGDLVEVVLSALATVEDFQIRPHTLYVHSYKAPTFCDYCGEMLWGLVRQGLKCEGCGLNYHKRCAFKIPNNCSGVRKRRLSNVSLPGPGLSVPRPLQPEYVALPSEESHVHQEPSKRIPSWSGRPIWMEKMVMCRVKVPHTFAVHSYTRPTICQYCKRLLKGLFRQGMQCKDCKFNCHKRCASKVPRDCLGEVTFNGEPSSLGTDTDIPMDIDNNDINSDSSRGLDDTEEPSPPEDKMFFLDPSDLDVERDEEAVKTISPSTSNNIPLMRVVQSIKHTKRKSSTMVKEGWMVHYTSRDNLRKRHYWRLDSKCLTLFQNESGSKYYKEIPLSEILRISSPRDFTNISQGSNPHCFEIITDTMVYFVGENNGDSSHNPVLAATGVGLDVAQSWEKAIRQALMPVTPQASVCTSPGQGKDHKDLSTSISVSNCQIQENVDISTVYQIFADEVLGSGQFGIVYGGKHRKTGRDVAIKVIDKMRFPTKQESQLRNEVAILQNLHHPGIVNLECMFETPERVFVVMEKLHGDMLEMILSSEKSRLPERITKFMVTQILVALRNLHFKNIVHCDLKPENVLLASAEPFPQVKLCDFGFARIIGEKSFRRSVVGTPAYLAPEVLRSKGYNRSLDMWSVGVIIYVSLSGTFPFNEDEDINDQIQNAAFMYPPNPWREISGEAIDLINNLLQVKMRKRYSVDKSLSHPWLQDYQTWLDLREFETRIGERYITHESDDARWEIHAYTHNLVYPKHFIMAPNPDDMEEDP
T1 sequence (Q9H2G2 whole entry): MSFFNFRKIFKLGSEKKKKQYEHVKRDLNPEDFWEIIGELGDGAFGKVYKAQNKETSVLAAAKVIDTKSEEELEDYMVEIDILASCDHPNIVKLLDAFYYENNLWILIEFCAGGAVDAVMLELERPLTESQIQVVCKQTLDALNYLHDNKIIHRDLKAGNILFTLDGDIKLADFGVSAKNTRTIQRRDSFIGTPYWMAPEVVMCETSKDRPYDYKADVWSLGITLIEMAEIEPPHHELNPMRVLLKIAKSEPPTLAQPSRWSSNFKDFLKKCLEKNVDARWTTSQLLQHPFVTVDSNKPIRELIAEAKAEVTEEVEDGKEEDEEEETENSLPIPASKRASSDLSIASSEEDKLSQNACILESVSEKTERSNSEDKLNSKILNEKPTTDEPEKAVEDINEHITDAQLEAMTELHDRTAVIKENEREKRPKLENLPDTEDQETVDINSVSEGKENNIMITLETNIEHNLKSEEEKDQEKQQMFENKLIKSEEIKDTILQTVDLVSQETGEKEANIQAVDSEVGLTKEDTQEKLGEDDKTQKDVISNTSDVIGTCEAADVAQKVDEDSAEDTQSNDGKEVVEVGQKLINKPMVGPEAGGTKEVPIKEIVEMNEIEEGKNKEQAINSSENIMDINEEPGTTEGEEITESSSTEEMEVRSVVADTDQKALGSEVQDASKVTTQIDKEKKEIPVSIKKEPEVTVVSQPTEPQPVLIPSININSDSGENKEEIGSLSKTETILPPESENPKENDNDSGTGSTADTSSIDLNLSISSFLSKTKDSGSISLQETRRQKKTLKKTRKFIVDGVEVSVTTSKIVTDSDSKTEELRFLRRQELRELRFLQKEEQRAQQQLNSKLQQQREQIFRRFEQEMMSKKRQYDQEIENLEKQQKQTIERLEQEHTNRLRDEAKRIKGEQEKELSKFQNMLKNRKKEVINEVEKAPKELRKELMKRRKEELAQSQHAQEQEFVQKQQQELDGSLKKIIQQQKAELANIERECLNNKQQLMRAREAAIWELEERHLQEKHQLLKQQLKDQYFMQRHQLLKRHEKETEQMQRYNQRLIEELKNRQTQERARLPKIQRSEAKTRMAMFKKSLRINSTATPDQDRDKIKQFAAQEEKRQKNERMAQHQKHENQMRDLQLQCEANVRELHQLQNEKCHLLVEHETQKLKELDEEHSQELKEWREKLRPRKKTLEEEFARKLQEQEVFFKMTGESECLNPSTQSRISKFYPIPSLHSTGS
T10 sequence (P33981 whole entry): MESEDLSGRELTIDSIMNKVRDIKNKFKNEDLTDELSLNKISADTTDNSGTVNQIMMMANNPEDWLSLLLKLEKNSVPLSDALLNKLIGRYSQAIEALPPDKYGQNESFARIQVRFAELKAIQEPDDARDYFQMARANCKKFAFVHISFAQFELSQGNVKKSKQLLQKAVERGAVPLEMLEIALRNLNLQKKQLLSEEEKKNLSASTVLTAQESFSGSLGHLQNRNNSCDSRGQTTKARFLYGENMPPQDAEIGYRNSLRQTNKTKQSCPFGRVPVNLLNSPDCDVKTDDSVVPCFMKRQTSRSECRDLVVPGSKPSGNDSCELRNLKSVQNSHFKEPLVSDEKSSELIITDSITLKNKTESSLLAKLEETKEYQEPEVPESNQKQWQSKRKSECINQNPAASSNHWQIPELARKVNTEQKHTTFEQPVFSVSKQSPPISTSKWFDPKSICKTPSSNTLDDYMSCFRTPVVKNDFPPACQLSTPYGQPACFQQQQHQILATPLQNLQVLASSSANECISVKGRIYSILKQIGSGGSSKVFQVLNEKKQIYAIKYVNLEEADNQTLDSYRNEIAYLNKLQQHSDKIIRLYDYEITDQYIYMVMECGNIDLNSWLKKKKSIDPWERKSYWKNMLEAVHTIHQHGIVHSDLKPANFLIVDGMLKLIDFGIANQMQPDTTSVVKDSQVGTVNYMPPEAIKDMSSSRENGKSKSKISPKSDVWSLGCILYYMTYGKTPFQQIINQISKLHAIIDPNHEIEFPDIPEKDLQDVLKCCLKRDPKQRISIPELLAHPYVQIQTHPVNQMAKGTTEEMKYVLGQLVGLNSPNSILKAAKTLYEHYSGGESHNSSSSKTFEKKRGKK

## CC(C)N1CCN(c2ccc(Nc3ncc4cc5n(c4n3)C3(CCCCC3)CNC5=O)nc2)CC1.Cl.Cl [G1T38, 2′-((5-(4-isopropylpiperazin-1-yl)pyridin-2-yl)amino)-7′, 8′dihydro-6′Hspiro[cyclohexane1,9′ pyrazino[1′,2′:1,5]pyrrolo[2,3-d]pyrimidin]-6′-one di-hydrochloride]
[1]; 1 hour post-treatment
  decrease of phosphorylated RB relative to the control: 30%
[1]; 24 hours post-treatment
  decrease of phosphorylated RB relative to the control: 98%
[1]; 48 hours post-treatment
  phosphorylation of RB, of control levels: approximately 31%
SLK
  Kd: 11 nM
FLT3 (D835V)
  Kd: 6.5 nM
ULK2
  Kd: 5.5 nM
NEK10
  Kd: 0.18 nM
CDK4/ CyclinD1
  Kd: 0.15 nM
SNARK
  Kd: 0.69 nM
PRKD3
  Kd: 5 nM
PRKD2
  Kd: 10 nM
CDK4/ CyclinD3
  Kd: 0.05 nM
TTK
  Kd: 4.2 nM
CDK1/Cyclin B1
  IC50: 2400 nM
[2]
  anti-tumor activity compared with docetaxel: equivalent anti-tumor activity
MV4-11
  EC50: 23 nM
WM2664
  EC50: 125 nM
MCF7
  EC50: 52 nM
A2058
  EC50: 2690 nM
Daudi
  EC50: 784 nM
ZR-75-1
  EC50: 61 nM
NALM1
  EC50: > 10000 nM
SupT1
  EC50: 57 nM
Tom1
  EC50: 232 nM
BV173
  EC50: 296 nM
H69
  EC50: 2920 nM
CDK9/Cyclin T
  IC50: 28 nM
